Measurements reported in patent US9682141B2, “Combination of kinase inhibitors and uses thereof” (INTELLIKINE LLC, priority 2011, dated 2017).
Like-named read-outs stand apart in the source and are kept apart here.

Assays:
Format in all cases: biochemical
PI3K α = PI3K α (Homo sapiens (Human), UniProt P42336); experiment: PI 3-Kinase (human) HTRF assay, p110α/p85α
PI3K β = PI3K β (Homo sapiens (Human), UniProt P42338); experiment: PI 3-Kinase (human) HTRF assay, p110β/p85α
PI3K γ = PI3K γ (Homo sapiens (Human), UniProt P48736); experiment: PI 3-Kinase (human) HTRF assay, p110γ
[1] = PI 3-Kinase (human) HTRF assay, p110δ/p85α; details: read-out: PI3K γ IC50

PI3K α, sequence (P42336 whole entry): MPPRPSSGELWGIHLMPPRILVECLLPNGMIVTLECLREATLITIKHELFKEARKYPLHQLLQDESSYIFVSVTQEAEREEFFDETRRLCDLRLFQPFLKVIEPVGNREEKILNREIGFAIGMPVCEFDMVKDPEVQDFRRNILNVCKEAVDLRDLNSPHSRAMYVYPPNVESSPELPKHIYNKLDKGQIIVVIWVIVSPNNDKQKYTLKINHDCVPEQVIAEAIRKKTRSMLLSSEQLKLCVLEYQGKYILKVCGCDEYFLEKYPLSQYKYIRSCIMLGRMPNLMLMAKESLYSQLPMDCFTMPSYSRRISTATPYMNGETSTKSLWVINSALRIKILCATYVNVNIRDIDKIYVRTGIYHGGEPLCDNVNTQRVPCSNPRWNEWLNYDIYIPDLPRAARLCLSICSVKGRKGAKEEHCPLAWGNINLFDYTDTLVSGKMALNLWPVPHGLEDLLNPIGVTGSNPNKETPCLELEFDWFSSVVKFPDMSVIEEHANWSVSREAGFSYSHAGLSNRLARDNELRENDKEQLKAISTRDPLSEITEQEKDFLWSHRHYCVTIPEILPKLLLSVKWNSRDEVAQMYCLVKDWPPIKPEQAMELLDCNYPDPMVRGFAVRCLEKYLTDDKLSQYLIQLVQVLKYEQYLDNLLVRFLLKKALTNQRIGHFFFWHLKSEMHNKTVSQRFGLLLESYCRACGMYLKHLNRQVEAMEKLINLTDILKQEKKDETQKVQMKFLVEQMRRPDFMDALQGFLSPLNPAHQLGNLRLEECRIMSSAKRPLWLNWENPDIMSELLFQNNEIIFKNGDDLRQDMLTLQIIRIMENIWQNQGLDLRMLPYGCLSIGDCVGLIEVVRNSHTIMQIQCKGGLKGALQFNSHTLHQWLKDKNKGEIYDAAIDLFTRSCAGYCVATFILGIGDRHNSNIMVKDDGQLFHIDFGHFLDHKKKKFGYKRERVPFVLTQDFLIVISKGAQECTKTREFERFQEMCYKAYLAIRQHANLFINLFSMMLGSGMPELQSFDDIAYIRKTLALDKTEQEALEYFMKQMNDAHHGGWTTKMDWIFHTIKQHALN
PI3K α, sequence (P27986 whole entry partner): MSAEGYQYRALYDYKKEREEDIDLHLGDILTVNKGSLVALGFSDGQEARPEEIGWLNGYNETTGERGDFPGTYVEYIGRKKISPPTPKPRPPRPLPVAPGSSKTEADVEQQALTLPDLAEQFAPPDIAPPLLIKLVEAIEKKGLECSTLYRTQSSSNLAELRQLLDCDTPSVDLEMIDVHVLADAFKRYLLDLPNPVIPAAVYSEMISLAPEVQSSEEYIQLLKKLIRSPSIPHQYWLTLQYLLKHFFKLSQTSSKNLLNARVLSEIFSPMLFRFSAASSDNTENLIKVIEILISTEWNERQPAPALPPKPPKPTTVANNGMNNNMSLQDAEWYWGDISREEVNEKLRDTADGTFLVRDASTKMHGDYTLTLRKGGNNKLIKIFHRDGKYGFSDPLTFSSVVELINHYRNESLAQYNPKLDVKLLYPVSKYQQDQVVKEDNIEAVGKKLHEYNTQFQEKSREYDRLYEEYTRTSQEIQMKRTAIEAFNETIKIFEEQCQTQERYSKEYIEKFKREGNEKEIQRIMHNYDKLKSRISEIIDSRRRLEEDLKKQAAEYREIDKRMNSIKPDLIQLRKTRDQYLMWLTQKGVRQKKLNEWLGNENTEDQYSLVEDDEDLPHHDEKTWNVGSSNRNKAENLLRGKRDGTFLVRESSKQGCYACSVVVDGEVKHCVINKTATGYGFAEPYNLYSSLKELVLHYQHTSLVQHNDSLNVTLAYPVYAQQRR
PI3K β, sequence (P42338 whole entry): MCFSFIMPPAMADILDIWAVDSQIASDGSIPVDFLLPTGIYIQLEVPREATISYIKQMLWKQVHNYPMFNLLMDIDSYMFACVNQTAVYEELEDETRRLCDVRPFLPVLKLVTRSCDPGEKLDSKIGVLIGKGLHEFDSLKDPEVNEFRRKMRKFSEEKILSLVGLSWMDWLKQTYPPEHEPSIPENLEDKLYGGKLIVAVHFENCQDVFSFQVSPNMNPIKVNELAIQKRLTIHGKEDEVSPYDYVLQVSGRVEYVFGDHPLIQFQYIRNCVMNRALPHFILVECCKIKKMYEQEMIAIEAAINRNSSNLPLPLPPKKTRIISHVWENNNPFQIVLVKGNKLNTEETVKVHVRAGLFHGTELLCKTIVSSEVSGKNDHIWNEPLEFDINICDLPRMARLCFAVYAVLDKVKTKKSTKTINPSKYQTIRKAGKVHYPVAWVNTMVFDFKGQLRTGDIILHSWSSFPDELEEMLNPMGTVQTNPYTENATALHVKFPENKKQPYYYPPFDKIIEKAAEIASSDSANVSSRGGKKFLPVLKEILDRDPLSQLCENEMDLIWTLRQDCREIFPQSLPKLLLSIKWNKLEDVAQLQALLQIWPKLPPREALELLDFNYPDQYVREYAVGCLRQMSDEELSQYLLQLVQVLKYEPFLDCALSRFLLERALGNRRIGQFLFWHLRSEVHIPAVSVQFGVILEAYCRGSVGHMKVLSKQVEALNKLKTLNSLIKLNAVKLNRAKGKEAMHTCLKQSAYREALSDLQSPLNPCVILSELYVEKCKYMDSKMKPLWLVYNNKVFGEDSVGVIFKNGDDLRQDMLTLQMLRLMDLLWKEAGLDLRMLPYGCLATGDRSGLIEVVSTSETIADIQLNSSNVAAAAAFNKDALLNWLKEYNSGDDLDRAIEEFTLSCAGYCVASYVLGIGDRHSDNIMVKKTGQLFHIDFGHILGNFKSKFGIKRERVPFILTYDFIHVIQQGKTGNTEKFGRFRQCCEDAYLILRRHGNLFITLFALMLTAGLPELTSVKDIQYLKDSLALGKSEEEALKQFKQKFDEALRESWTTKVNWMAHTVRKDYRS
PI3K β, sequence (P27986 whole entry partner): as the sequence (P27986 whole entry partner) above

| SMILES | IC50 (PI3K α) [µM] | IC50 (PI3K β) [µM] | IC50 (PI3K γ; read-out: PI3K δ IC50) [µM] | IC50 [1] [µM] | IC50 (PI3K γ; read-out: PI3K γ IC50) [µM] |
| --- | --- | --- | --- | --- | --- |
| NC(=O)[C@@H]1CCCN1c1cnc2ccc(-c3ccc4oc(N)nc4c3)cc2n1 | < 0.1 | > 10 | > 10 | > 10 | – |
| Cc1ccn(C2CCN(C(=O)c3cnc4ccc(-c5ccc6oc(N)nc6c5)cn34)CC2)n1 | < 1 | > 10 | < 10 | > 10 | – |
| Nc1nc2cc(-c3ccc4nc(N)c(N5CC(N6CCOCC6)C5)nc4c3)ccc2o1 | > 10 | > 10 | > 10 | > 10 | – |
| Nc1cn2cc(-c3ccc4nc(N)oc4c3)ccc2n1 | > 10 | < 10 | < 10 | > 10 | – |
| Nc1nc2cc(-c3ccc4ncc(N5CC[C@H](N6CCOCC6)C5)nc4c3)ccc2o1 | < 1 | < 10 | < 1 | < 1 | – |
| CN1CCC(Nc2nc3cc(-c4ccc5ncc(C(=O)N6CCOCC6)n5c4)ccc3o2)CC1 | > 10 | > 10 | > 10 | > 10 | – |
| Cc1cc(-c2ccc3oc(N)nc3c2)cn2c(C(=O)N3CCOCC3)cnc12 | < 1 | > 10 | < 10 | > 10 | – |
| C[C@H]1CN(c2nc3cc(-c4ccc5oc(N)nc5c4)ccc3nc2N)CCN1 | < 10 | > 10 | > 10 | > 10 | – |
| COc1ncc(-c2ccc3ncn(C4CCN(C(C)C)CC4)c(=O)c3c2)cc1NS(=O)(=O)c1ccccc1 | < 0.1 | < 0.1 | < 0.1 | < 0.1 | – |
| Nc1nc2ccc(-c3ccc4nnc(-c5ccncc5)n4c3)cc2o1 | < 10 | < 1 | < 1 | < 10 | – |
| COc1ccc(-c2ccc3ncc(C(=O)N4CCOCC4)n3c2)cc1NS(=O)(=O)c1ccccc1 | < 10 | > 10 | < 10 | > 10 | – |
| NC(=O)[C@@H]1CCCN1C(=O)c1cnc2ccc(-c3ccc4oc(N)nc4c3)cn12 | < 1 | > 10 | < 10 | > 10 | – |
| Nc1nc2cc(-c3ccc4ncc(C(=O)N5CC(F)C5)n4c3)ccc2o1 | < 0.1 | < 10 | < 0.1 | > 10 | – |
| C[C@H](N)C(=O)N1CCN(c2cnc3ccc(-c4ccc5oc(N)nc5c4)cc3n2)CC1 | < 0.1 | < 0.1 | < 0.1 | < 1 | – |
| CCN(CC)CCNc1cnc2ccc(-c3ccc4oc(N)nc4c3)cc2n1 | < 1 | < 1 | < 10 | < 1 | – |
| CC1(C)CN(C(=O)c2cnc3ccc(-c4ccc5oc(N)nc5c4)cn23)CCO1 | < 1 | > 10 | < 10 | > 10 | – |
| CC(=O)Nc1nc2ccc(-c3ccc4nc(N)oc4c3)cc2s1 | < 0.1 | < 0.1 | < 0.1 | > 10 | – |
| C[C@H]1CN(C2CN(C(=O)c3cnc4ccc(-c5ccc6oc(N)nc6c5)cn34)C2)CCN1C | < 0.1 | < 10 | < 10 | < 1 | – |
| CCN(CC)CCCn1cnc2ccc(-c3ccc4oc(N)nc4c3)cc2c1=O | < 1 | > 10 | > 10 | < 10 | – |
| C[C@H]1CCCN1C(=O)c1cnc2ccc(-c3ccc4oc(N)nc4c3)cn12 | < 0.1 | > 10 | < 1 | < 10 | – |
| Cc1cc(-c2ccc3ncc(N4CC(N5CCOCC5)C4)nc3c2)cc2nc(N)oc12 | < 10 | < 10 | < 10 | < 10 | – |
| CN1CCN(c2cnc3ccc(-c4ccc5oc(N)nc5c4)cc3n2)C(=O)C1 | < 10 | – | > 10 | – | – |
| Cc1c(-c2ccc3oc(N)nc3c2)ccc2ncc(N3CC(N4CCNCC4)C3)nc12 | < 0.1 | > 10 | – | > 10 | – |
| COc1ncc(-c2ccc3ncn(C4CCN(C)CC4)c(=O)c3c2)cc1NS(C)(=O)=O | < 0.1 | < 1 | < 10 | – | – |
| C[C@@H]1CN(c2cnc3ccc(-c4ccc5oc(N)nc5c4)nc3n2)CCN1 | < 0.1 | < 0.1 | – | – | < 1 |
| Nc1nc2cc(-c3ccc4ncc(C(=O)N5CCC(O)C5)n4c3)ccc2o1 (stereo not drawn) | < 0.1 | < 10 | – | < 10 | – |
| CN(C)CC(=O)N1CCN(c2cnc3ccc(-c4ccc5oc(N)nc5c4)cc3n2)CC1 [drawing 407] | – | – | < 1 | < 1 | – |
| CC1CN(C(=O)c2cnc3ccc(-c4ccc5oc(N)nc5c4)cn23)CCO1 (stereo not drawn) | < 0.1 | < 10 | – | > 10 | – |

The remaining lines, values ahead:

| IC50 (PI3K α) [µM] | IC50 (PI3K β) [µM] | IC50 (PI3K γ; read-out: PI3K δ IC50) [µM] | IC50 [1] [µM] | IC50 (PI3K γ; read-out: PI3K γ IC50) [µM] | SMILES |
| --- | --- | --- | --- | --- | --- |
| < 10 | < 1 | < 10 | < 10 | – | CC(Oc1nc(-c2ccc3oc(N)nc3c2)cnc1N)C(F)(F)F (stereo not drawn) |
| < 0.1 | < 0.1 | < 0.1 | < 0.1 | – | O=C(c1cnc2ccc(-c3cnc(Cl)c(NS(=O)(=O)c4ccc(F)cc4)c3)cn12)N1CCOCC1 |
| < 0.1 | < 1 | < 1 | < 10 | – | Nc1nc2cc(-c3ccc4ncc(N5CC(n6ccnc6)C5)nc4c3)ccc2o1 |
| < 0.1 | < 1 | < 0.1 | < 1 | – | Nc1nc2cc(-c3ccc4ncc(N5CCN(C(=O)C6(N)CCC6)CC5)nc4c3)ccc2o1 |
| > 10 | > 10 | > 10 | > 10 | – | Nc1nc2ccc(-c3ccc4nc(N)oc4c3)cc2o1 |
| < 0.1 | < 1 | < 0.1 | < 0.1 | – | COc1ncc(-c2ccc3ncc(C(=O)N4CCOCC4)n3c2)cc1NS(=O)(=O)c1ccc(F)cc1 |
| < 1 | < 1 | < 0.1 | < 10 | – | Nc1nc2ccc(-c3cc(F)c4oc(N)nc4c3)cc2o1 |
| < 10 | < 10 | < 0.1 | > 10 | – | CC(=O)Nc1nc2cc(-c3cc(F)c4oc(N)nc4c3)ccc2s1 |
| > 10 | > 10 | > 10 | > 10 | – | O=C(c1cnc2ccc(-c3cccc(S(=O)(=O)Nc4ccccc4)c3)cn12)N1CCOCC1 |
| < 1 | > 10 | > 10 | > 10 | – | CC1(C)COCCN1C(=O)c1cnc2ccc(-c3ccc4oc(N)nc4c3)cn12 |
| < 1 | < 0.1 | < 1 | < 10 | – | C[C@H]1CN(c2cnc3ccc(-c4ccc5oc(N)nc5c4)cc3n2)CCN1C |
| < 0.1 | < 10 | < 10 | < 10 | – | Nc1nc2cc(-c3ccc4ncc(N5CC(N6CCS(=O)(=O)CC6)C5)nc4c3)ccc2o1 |
| < 1 | < 10 | < 1 | < 10 | – | Nc1nc2cc(-c3ccc4ncc(C(=O)N5CC[C@@H](N6CCOCC6)C5)n4c3)ccc2o1 |
| < 1 | < 10 | < 1 | < 10 | – | O=C(c1cnc2ccc(-c3ccc(Cl)c(NS(=O)(=O)c4ccc(F)cc4F)c3)cn12)N1CCOCC1 |
| < 0.1 | > 10 | – | – | < 10 | C[C@@H]1CN(C2CN(c3cnc4ccc(-c5ccc6oc(N)nc6c5)nc4n3)C2)CCN1C |
